Results as given in the OPERA property sets (Mansouri et al. 2018).

First: CC(=O)c1ccc(S(=O)(=O)c2ccc(N)cc2)cc1
Second: NC(=O)c1ccc(S(=O)(=O)c2ccc(N)cc2)cc1
The logP of the first is higher: 1.67 for the first, 0.9 for the second.

First: Nc1ccc(S(=O)(=O)c2ccc([N+](=O)[O-])cc2)cc1
Second: Cc1ccc(S(=O)(=O)c2ccc(N)cc2)cc1
The logP of the first is lower: 2.04 for the first, 2.4 for the second.

First: CCN(CC)C(=O)c1ccc(S(=O)(=O)c2ccc(N)cc2)cc1
Second: CCN(CC)c1ccc(S(=O)(=O)c2ccc(N)cc2)cc1
The logP of the first is lower: 1.44 for the first, 3 for the second.

First: Nc1ccc(S(=O)(=O)c2ccc(Cl)cc2Cl)cc1
Second: Nc1ccc(S(=O)(=O)c2ccc(N)cc2N)cc1
The logP of the first is higher: 3.12 for the first, 0.38 for the second.

First: Cc1cc(C)c(S(=O)(=O)c2ccc(N)cc2)c(C)c1
Second: Cc1ccc(S(=O)(=O)c2ccc(N)cc2)c(C)c1
The logP of the first is higher: 3.06 for the first, 2.71 for the second.

Compared with `COc1ccc(S(=O)(=O)c2ccc(N)cc2)cc1`, `Nc1ccc(S(=O)(=O)c2ccc(Cl)cc2)cc1` is higher in logP: 1.96 for the first, 2.57 for the second.

First: Nc1ccc(S(=O)(=O)c2ccc([N+](=O)[O-])cc2[N+](=O)[O-])cc1
Second: Nc1ccc(S(=O)(=O)c2ccc(O)cc2O)cc1
The logP of the first is higher: 1.84 for the first, 1.29 for the second.

Compared with `Nc1ccc(S(=O)(=O)c2cccc(N)c2)cc1`, `Nc1ccc(S(=O)(=O)c2ccccc2)cc1` is higher in logP: 1.03 for the first, 1.76 for the second.

Going from `COc1ccc(S(=O)(=O)c2ccc(N)cc2)c(OC)c1` to `COc1cc(OC)c(S(=O)(=O)c2ccc(N)cc2)c(OC)c1`, the logP falls from 1.64 to 1.03.

Going from `Nc1ccc(S(=O)(=O)c2ccc(NO)cc2)cc1` to `CCNc1ccc(S(=O)(=O)c2ccc(N)cc2)cc1`, the logP rises from 0.88 to 1.98.

First: Nc1ccc(S(=O)(=O)c2ccccc2N)cc1
Second: Nc1ccc(S(=O)(=O)c2ccc(Br)cc2)cc1
The logP of the first is lower: 1.56 for the first, 2.85 for the second.

Going from `COC(=O)c1ccc(S(=O)(=O)c2ccc(N)cc2)cc1` to `Nc1ccc(S(=O)(=O)c2ccc(O)cc2)cc1`, the logP falls from 2.13 to 1.57.

First: N#Cc1ccc(S(=O)(=O)c2ccc(N)cc2)cc1
Second: CN(C)c1ccc(S(=O)(=O)c2ccc(N)cc2)cc1
The logP of the first is lower: 1.63 for the first, 1.99 for the second.
